These results are taken from patent US20090298878A1, “OXIME COMPOUNDS AND THE USE THEREOF” (priority 2006, published 2009).

In this assay the target is T1, N-type calcium channel (NTCC) (Homo sapiens, UniProt Q00975).
T1 construct: host or cells: IMR32 cells differentiated with dibutyryl cAMP and bromodeoxyuridine
Kind of assay: FLIPR calcium mobilization assay for N-type calcium channel (differentiated IMR32 cells). Type of assay: cell-based. The method in brief: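 Human IMR32 cells differentiated 8 days (1 mM dibutyryl cAMP, 2.5 μM BrdU), pre-stimulated 1 h with 90 mM KCl plus compound (~846 pM–17 μM) and 5 μM nitrendipine, Fluo-4 loaded. FLIPR read basal fluorescence 315 s, then 90 mM KCl agonist added and fluorescence recorded 45 s; non-linear regression.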
(Calcium assays in cells follow changes in intracellular calcium, usually with a dye or a luminescent sensor.)

The mark [1] stands for this setting: about 1.0 μM or less, calcium mobilization and/or electrophysiological assay.

Each structure is given as a SMILES string.

T1 sequence (Q00975 whole entry): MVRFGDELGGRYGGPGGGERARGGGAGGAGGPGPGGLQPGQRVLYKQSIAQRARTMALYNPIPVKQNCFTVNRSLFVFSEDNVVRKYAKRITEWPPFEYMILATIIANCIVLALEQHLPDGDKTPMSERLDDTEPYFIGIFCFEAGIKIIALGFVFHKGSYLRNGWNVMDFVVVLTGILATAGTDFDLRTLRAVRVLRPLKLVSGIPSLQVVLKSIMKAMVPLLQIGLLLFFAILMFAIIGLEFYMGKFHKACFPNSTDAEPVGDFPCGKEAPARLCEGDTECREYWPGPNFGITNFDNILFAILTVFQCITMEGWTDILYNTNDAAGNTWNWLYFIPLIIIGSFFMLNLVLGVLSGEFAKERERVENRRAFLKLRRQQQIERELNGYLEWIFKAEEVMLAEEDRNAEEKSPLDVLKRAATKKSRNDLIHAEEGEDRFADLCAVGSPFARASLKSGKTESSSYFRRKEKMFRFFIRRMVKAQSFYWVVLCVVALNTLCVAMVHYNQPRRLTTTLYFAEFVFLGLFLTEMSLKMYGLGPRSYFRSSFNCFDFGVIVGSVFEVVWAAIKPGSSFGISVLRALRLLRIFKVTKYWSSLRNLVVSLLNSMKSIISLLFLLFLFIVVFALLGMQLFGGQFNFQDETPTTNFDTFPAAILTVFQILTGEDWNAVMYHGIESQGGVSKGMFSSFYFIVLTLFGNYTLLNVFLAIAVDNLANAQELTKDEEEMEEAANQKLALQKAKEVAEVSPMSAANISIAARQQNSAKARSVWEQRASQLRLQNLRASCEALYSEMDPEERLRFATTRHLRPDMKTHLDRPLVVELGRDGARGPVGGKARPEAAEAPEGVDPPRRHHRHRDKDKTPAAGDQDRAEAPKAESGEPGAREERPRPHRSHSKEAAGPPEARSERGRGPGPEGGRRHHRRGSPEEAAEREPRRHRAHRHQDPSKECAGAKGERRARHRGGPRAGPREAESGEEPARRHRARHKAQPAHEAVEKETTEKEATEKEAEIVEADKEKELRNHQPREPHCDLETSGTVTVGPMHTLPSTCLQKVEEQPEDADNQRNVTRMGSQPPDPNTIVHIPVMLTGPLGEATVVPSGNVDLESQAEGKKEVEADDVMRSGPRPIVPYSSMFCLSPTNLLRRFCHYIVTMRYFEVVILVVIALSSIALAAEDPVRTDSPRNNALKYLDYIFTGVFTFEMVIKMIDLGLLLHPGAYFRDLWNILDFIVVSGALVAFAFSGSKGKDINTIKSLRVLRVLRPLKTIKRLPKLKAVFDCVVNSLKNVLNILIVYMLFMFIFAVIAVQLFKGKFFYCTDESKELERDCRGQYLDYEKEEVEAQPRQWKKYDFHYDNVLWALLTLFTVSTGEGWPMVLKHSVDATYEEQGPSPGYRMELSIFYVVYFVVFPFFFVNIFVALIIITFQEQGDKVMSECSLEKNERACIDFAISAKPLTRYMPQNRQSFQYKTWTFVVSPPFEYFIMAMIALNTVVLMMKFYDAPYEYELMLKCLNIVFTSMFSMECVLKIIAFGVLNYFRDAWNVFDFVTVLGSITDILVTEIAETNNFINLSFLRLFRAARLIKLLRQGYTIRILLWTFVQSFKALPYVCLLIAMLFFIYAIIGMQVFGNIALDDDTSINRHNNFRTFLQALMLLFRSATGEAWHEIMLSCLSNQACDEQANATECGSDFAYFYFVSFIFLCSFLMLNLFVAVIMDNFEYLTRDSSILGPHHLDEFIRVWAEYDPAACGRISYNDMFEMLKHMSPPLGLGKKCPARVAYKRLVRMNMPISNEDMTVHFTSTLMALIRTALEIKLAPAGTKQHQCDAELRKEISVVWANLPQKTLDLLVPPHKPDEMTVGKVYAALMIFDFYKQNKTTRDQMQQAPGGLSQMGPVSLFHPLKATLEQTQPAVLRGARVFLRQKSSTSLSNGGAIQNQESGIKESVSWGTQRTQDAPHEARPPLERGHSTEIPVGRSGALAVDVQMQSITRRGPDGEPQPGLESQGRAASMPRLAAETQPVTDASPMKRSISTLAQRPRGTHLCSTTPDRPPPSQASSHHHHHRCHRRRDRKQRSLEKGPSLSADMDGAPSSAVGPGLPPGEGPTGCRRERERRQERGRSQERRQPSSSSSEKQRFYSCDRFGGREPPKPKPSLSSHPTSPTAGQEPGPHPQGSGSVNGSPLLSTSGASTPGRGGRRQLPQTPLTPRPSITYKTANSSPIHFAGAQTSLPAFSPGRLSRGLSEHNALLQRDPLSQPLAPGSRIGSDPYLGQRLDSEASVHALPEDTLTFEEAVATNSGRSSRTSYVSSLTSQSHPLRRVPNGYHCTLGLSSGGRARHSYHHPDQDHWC

With `O=S(=O)(c1ccccn1)N1CCC(=NOC(c2ccc(F)cc2)c2ccc(F)cc2)CC1` [Example 288, 1-(Pyridin-2-ylsulfonyl)piperidin-4-one O-bis(4-fluorophenyl)methyl oxime], the IC50 under setting [1] was no more than 1000 nM.

Consider `O=S(=O)(c1ccccc1OC(F)(F)F)N1CCC(=NOC(c2ccc(F)cc2)c2ccc(F)cc2)CC1` [Example 289, 1-(2-(Trifluoromethoxy)phenylsulfonyl)piperidin-4-one O-bis(4-fluorophenyl)methyl oxime], for which the IC50 under setting [1] was no more than 1000 nM. Take `O=S(=O)(c1cccc(OC(F)(F)F)c1)N1CCC(=NOC(c2ccc(F)cc2)c2ccc(F)cc2)CC1` [Example 290, 1-(3-(Trifluoromethoxy)phenylsulfonyl)piperidin-4-one O-bis(4-fluorophenyl)methyl oxime]: the IC50 under setting [1] was no more than 1000 nM. For `O=S(=O)(c1cccnc1)N1CCC(=NOC(c2ccc(F)cc2)c2ccc(F)cc2)CC1` [Example 291, 1-(Pyridin-3-ylsulfonyl)piperidin-4-one O-bis(4-fluorophenyl)methyl oxime], the IC50 under setting [1] was no more than 1000 nM. On the same count and under the same terms, the same measure for `O=S(=O)(c1cccc(Cl)c1)N1CCC(=NOC(c2ccc(F)cc2)c2ccc(F)cc2)CC1` [Example 292, 1-(3-Chlorophenylsulfonyl)piperidin-4-one O-bis(4-fluorophenyl)methyl oxime]: no more than 1000 nM; for `O=S(=O)(c1cccc(C(F)(F)F)c1)N1CCC(=NOCCC2CCCCC2)CC1` [Example 294, 1-(3-(Trifluoromethyl)phenylsulfonyl)piperidin-4-one O-2-cyclohexylethyl oxime]: no more than 1000 nM; for `O=c1cc(CON=C2CCN(S(=O)(=O)c3ccc(OC(F)(F)F)cc3)CC2)ccn1Cc1ccc(F)cc1` [Example 296, 1-(4-Fluorobenzyl)-4-((1-(4-(trifluoromethoxy)phenylsulfonyl)piperidin-4-ylideneaminooxy)methyl)pyridin-2(1H)-one]: no more than 1000 nM. Still for that read-out and setting: with `N#Cc1cccc(C(CN2CCOCC2)ON=C2CCN(S(=O)(=O)c3ccc(OC(F)(F)F)cc3)CC2)c1` (stereo not drawn) [Example 302, 3-(2-Morpholino-1-(1-(4-(trifluoromethoxy)phenylsulfonyl)piperidin-4-ylideneaminooxy)ethyl)benzonitrile] the figure was no more than 1000 nM; with `CC(C)OCC(ON=C1CCN(S(=O)(=O)c2ccc(OC(F)(F)F)cc2)CC1)c1cccc(C#N)c1` (stereo not drawn) [Example 303, 3-(2-Isopropoxy-1-(1-(4-(trifluoromethoxy)phenylsulfonyl)piperidin-4-ylideneaminooxy)ethyl)benzonitrile], no more than 1000 nM; with `N#Cc1cccc(C(COc2ccc(F)cc2)ON=C2CCN(S(=O)(=O)c3ccc(OC(F)(F)F)cc3)CC2)c1` (stereo not drawn) [Example 304, 3-(2-(4-Fluorophenoxy)-1-(1-(4-(trifluoromethoxy)phenylsulfonyl)piperidin-4-ylideneaminooxy)ethyl)benzonitrile], no more than 1000 nM. With `O=S(=O)(c1ccc(OC(F)(F)F)cc1)N1CCC(=NOC(c2ccc(F)cc2)C2CC2)CC1` (stereo not drawn) [Example 306, 1-(4-(Trifluoromethoxy)phenylsulfonyl)piperidin-4-one O-cyclopropyl(4-fluorophenyl)methyl oxime], under setting [1], the IC50 is no more than 1000 nM. Same read-out and setting: with `O=S(=O)(c1ccc(OC(F)(F)F)cc1)N1CCC(=NOC(c2cccc(C(F)(F)F)c2)C2CC2)CC1` (stereo not drawn) [Example 307, 1-(4-(Trifluoromethoxy)phenylsulfonyl)piperidin-4-one O-cyclopropyl(3-(trifluoromethyl)phenyl)methyl oxime] the figure was no more than 1000 nM.

For `O=S(=O)(c1cccc(C(F)(F)F)c1)N1CCC(=NOC2CCCCC2)CC1` [Example 309, 1-(3-(Trifluoromethyl)phenylsulfonyl)piperidin-4-one O-cyclohexyl oxime], under setting [1], the IC50 is no more than 1000 nM.

For `O=S(=O)(c1cccc(C(F)(F)F)c1)N1CCC(=NOCCc2ccccc2)CC1` [Example 310, 1-(3-(Trifluoromethyl)phenylsulfonyl)piperidin-4-one O-phenethyl oxime], the IC50 under setting [1] was no more than 1000 nM. On to `O=S(=O)(c1ccc(OC(F)(F)F)cc1)N1CCC(=NOCc2ccccc2-c2ccccc2)CC1` [Example 311, 1-(4-(Trifluoromethoxy)phenylsulfonyl)piperidin-4-one O-biphenyl-2-ylmethyl oxime], for which the IC50 under setting [1] was no more than 1000 nM. Turning to `O=S(=O)(c1ccc(OC(F)(F)F)cc1)N1CCC(=NOCc2ncccc2-c2ccccc2)CC1` [Example 313, 1-(4-(Trifluoromethoxy)phenylsulfonyl)piperidin-4-one O-(3-phenylpyridin-2-yl)methyl oxime], the IC50 under setting [1] is no more than 1000 nM.

Take `O=c1ccc(CON=C2CCN(S(=O)(=O)c3ccc(OC(F)(F)F)cc3)CC2)cn1-c1ccc(F)cc1` [Example 314, 1-(4-Fluorophenyl)-5-((1-(4-(trifluoromethoxy)phenylsulfonyl)piperidin-4-ylideneaminooxy)methyl)pyridin-2(1H)-one]: under setting [1], the IC50 is no more than 1000 nM.

As to `N#Cc1ccc(-n2cc(CON=C3CCN(S(=O)(=O)c4ccc(OC(F)(F)F)cc4)CC3)ccc2=O)cc1` [Example 315, 4-(2-oxo-5-((1-(4-(trifluoromethoxy)phenylsulfonyl)piperidin-4-ylideneaminooxy)methyl)pyridin-1(2H)-yl)benzonitrile], the IC50 under setting [1] is no more than 1000 nM.

As for `O=S(=O)(c1ccc(NC2CC2)nc1)N1CCC(=NOCc2cccc(C(F)(F)F)c2)CC1` [Example 321, 1-(6-Cyclopropylaminopyridine-3-sulfonyl)piperidin-4-one O-(3-trifluoromethylbenzyl)oxime], the IC50 under setting [1] was no more than 1000 nM. With `O=C(CN1CCC(=NOC(c2ccc(F)cc2)c2ccc(F)cc2)CC1)Nc1cc(C(F)(F)F)cc(C(F)(F)F)c1` [Example 328, 2-(4-(Bis(4-fluorophenyl)methoxyimino)piperidin-1-yl)-N-(3,5-bis(trifluoromethyl)phenyl)acetamide], the IC50 (calcium mobilization in vitro assay, N-type calcium channel blockers) came to 1100 nM. As for `O=C(CN1CCC(=NOCc2cccc(C(F)(F)F)c2)CC1)NCc1cc(C(F)(F)F)cc(C(F)(F)F)c1` [Example 329, N-(3,5-Bis(trifluoromethyl)benzyl)-2-(4-(3-(trifluoromethyl)benzyloxyimino)piperidin-1-yl)acetamide], under setting [1], the IC50 was no more than 1000 nM. The same measure, in the same setting: with `CC(C)CCON=C1CCN(S(=O)(=O)c2cccc(C(F)(F)F)c2)CC1` [Example 366, 1-(3-(Trifluoromethyl)phenylsulfonyl)piperidin-4-one O-isopentyl oxime] the figure was no more than 1000 nM.

As for `CCCCC(C)ON=C1CCN(S(=O)(=O)c2cccc(C(F)(F)F)c2)CC1` (stereo not drawn) [Example 367, 1-(3-(Trifluoromethyl)phenylsulfonyl)piperidin-4-one O-hexan-2-yl oxime], under setting [1], the IC50 is no more than 1000 nM. The same measure, in the same setting: with `O=S(=O)(c1cccc(C(F)(F)F)c1)N1CCC(=NOC/C=C/c2ccccc2)CC1` [Example 368, 1-(3-(Trifluoromethyl)phenylsulfonyl)piperidin-4-one O-cinnamyl oxime] the figure was no more than 1000 nM.

As a reminder, the IC50 is the midpoint of a concentration-inhibition curve.
